Values of other authors as cited in article PMC4422128, “Discovery of sea urchin NGFFFamide receptor unites a bilaterian neuropeptide family” (Open Biology, 2015).
“Also recorded” adds a separate entry of the source. Positions of bridges follow the written chain, without caps; N, C: chain ends. No end group written: not given here.

Columns and labels:
crab hearts = tested on: crab hearts; design: method as in PMID 16593803
arthropods = settings: insects (b4)
From the text: Furthermore, the ligand that activ ... || Our discovery that the NPS/CCAP-type receptor in the sea urchin S. purpuratus is activated by the NG peptide NGFFFamide provides a basis for investigation of the physiological roles of NG peptides in deuterostomian invertebrates. This will provide new insights into the evolution of the physiological and behavioural functions of NPS/NG peptide/CCAP-type neuropeptides in the animal kingdom. Based upon what is currently known, a common theme seems to be a role in control of behaviours that are associated with a heightened state of arousal. Thus, NPS causes anxiolysis and arousal in mammals, ...

[1] = tested on: NPSR-type protein in Drosophila
From the text: Furthermore, the ligand that activ ...

rodents = rodents (b3); mammals
From the text: This will provide new insights into the evolution of the physiological and behavioural functions of NPS/NG peptide/CCAP-type neuropeptides in the animal kingdom. Based upon what is currently known, a common theme seems to be a role in control of behaviours that are associated with a heightened state of arousal. Thus, NPS causes anxiolysis and arousal in mammals, ...

VRR1/GPR154 (NPSR) = tested on: VRR1/GPR154 (NPSR); design: method as in PMID 15312648; settings: purified from brain extracts

| Substance | effect on crab hearts (crab hearts) | control/activation of ecdysis (arthropods) | activation of NPSR-type protein in Drosophila [1] | physiological action of NPS: anxiety (rodents) | physiological action of NPS: arousal (rodents) | ligand activity at VRR1/GPR154, NPS (VRR1/GPR154 (NPSR)) |
| --- | --- | --- | --- | --- | --- | --- |
| PFCNAFTGC-NH2 (disulfide 3-9 (inferred)) [CCAP, crustacean cardioactive peptide] | excitatory effect on crab hearts | activates the ecdysis motor programme; also recorded: controls ecdysis behaviour in insects | activates the NPSR-type protein in Drosophila |  |  |  |
| SFRNGVGTGMKKTSFQRAKS [NPS, neuropeptide-S] |  |  |  | anxiolytic-like action; also recorded: anxiolysis | causing arousal | endogenous ligand |
